In publication PMC12439480, “Dimeric CCK2R radiotheranostic tracers synergize with mTOR inhibition for enhanced tumor therapy” (Theranostics, 2025):
Read-outs that look alike come from different tables or passages of the source. Numbered stars: 1 amine (or outer) side, 2 acyl side, 3 side chain; on linkers, the order of the positions; unused ones are H or OH. Square brackets hold non-standard residues; d marks the D form. Side chains are listed from the residue outwards. Peptide text beside a SMILES is read from it. * marks the point of attachment. DOTA = O=C(O)CN1CCN(CC(=O)O)CCN(CC(=O)*)CCN(CC(=O)O)CC1; d(γGlu) = O=C(O)[C@@H](CCC(=O)[*:2])N[*:1]; 1Nal = N[C@@H](Cc1cccc2ccccc12)C(=O)O; NMeNle = CCCC[C@H](NC)C(=O)O; PEG4 = NCCOCCOCCOCCOCCC(=O)O

Experiment: Ex vivo biodistribution of 177Lu-labeled compound
Set-up: species or system BALB/c nude mice
Conditions: mouse, in vivo; for tissue to tissue ratio at 24 h / tissue to tissue ratio at 48 h / tissue to tissue ratio at 72 h / tissue to tissue ratio at 96 h / tissue to tissue ratio at 1 h / tissue to tissue ratio at 4 h: female, BALB/c nude, iv, total radioactivity
Protocol: To evaluate the biodistribution of [^177Lu]Lu-DOTA-CCK2R-dimer, AR42J tumor-bearing mice received intravenous (i.v.) injections of 3.7 MBq (≈ 120 pmol) of [^177Lu]Lu-DOTA-CCK2R-dimer (dissolved in 200 μL of saline; n = 3/group), and Mice were sacrificed at 1, 4, 24, 48, 72, and 96 h post-injection. The tissues of interest were excised, weighed, and analyzed for radioactivity using a γ-counter.
All animal studies were approved by the Ethics Committee of Fudan University Shanghai Cancer Center (No. FUSCC-IACUC- S2023- 0003). Five-week-old female BALB/c nude mice were purchased from Shanghai SLAC Laboratory Animal
Company. To establish cell-derived xenograft (CDX) models, 1 × 10⁶ AR42J cells (100 μL) were subcutaneously inoculated into the right shoulder of each mouse. […]
Radioactivity levels were measured using a gamma counter, with decay correction applied based on the injection time. The percentage of injected dose per gram of tissue (%ID/g) was calculated for each time point. […]

[1] = 3.7 MBq, Tumor-to-Bladder ratio (T/B)
[2] = 3.7 MBq, Tumor-to-Blood ratio (T/B)
[3] = 3.7 MBq, Tumor-to-Bone ratio (T/B)
[4] = 3.7 MBq, Tumor-to-Brain ratio (T/B)
[5] = 3.7 MBq, Tumor-to-Heart ratio (T/B)
[6] = 3.7 MBq, Tumor-to-Liver ratio (T/B)
[7] = 3.7 MBq, Tumor-to-Muscle ratio (T/M)
[8] = 3.7 MBq, Tumor-to-Stomach ratio (T/B)
[9] = Tumor-to-Large intestine ratio (T/B)
[10] = Tumor-to-Small intestine ratio (T/B)

CCCC[C@@H](C(=O)N[C@@H](CC(=O)O)C(=O)N[C@@H](Cc1cccc2ccccc12)C(N)=O)N(C)C(=O)[C@H](Cc1c[nH]c2ccccc12)NC(=O)CCOCCOCCOCCOCCNC(=O)CC[C@@H](NC(=O)CC[C@H](NC(=O)CN1CCN(CC(=O)O)CCN(CC(=O)O)CCN(CC(=O)O)CC1)C(=O)N[C@H](CCC(=O)NCCOCCOCCOCCOCCC(=O)N[C@@H](Cc1c[nH]c2ccccc12)C(=O)N(C)[C@@H](CCCC)C(=O)N[C@@H](CC(=O)O)C(=O)N[C@@H](Cc1cccc2ccccc12)C(N)=O)C(=O)O)C(=O)O [[177Lu]Lu-DOTA-CCK2R-dimer, metal not drawn] ({DOTA}-E([d(γGlu)-PEG4-Trp-NMeNle-Asp-1Nal-NH2])[d(γGlu)][PEG4]W[NMeNle]D[1Nal]-NH2)
tissue to tissue ratio at 24 h [1]: 35.4 ± 6.48
tissue to tissue ratio at 48 h [1]: 194 ± 91
tissue to tissue ratio at 72 h [1]: 44.7 ± 13.1
tissue to tissue ratio at 96 h [1]: 13.5 ± 4.12
tissue to tissue ratio at 1 h [2]: 2.95 ± 1.5
tissue to tissue ratio at 4 h [2]: 13.3 ± 5.68
tissue to tissue ratio at 24 h [2]: 141 ± 51.3
tissue to tissue ratio at 48 h [2]: 186 ± 14.3
tissue to tissue ratio at 72 h [2]: 768 ± 140
tissue to tissue ratio at 96 h [2]: 226 ± 40.9
tissue to tissue ratio at 1 h [3]: 35.1 ± 13.6
tissue to tissue ratio at 4 h [3]: 53.2 ± 32.6
tissue to tissue ratio at 24 h [3]: 165 ± 45
tissue to tissue ratio at 48 h [3]: 1070 ± 247
tissue to tissue ratio at 72 h [3]: 117 ± 40.1
tissue to tissue ratio at 96 h [3]: 46 ± 9.49
tissue to tissue ratio at 1 h [4]: 141 ± 50
tissue to tissue ratio at 4 h [4]: 470 ± 81.1
tissue to tissue ratio at 24 h [4]: 6080 ± 100
tissue to tissue ratio at 48 h [4]: 1710 ± 151
tissue to tissue ratio at 72 h [4]: 746 ± 85.1
tissue to tissue ratio at 96 h [4]: 189 ± 50.1
tissue to tissue ratio at 1 h [5]: 15.3 ± 5.59
tissue to tissue ratio at 96 h [5]: 105 ± 5.19
tissue to tissue ratio at 1 h [6]: 5.19 ± 2.8
tissue to tissue ratio at 4 h [6]: 4.37 ± 0.9
tissue to tissue ratio at 24 h [6]: 10 ± 0.99
tissue to tissue ratio at 48 h [6]: 7.78 ± 1.96
tissue to tissue ratio at 1 h [7]: 53.3 ± 18.2
tissue to tissue ratio at 4 h [7]: 246 ± 180
tissue to tissue ratio at 24 h [7]: 417 ± 210
tissue to tissue ratio at 48 h [7]: 531 ± 153
tissue to tissue ratio at 72 h [7]: 348 ± 238
tissue to tissue ratio at 96 h [7]: 90.8 ± 32.8
tissue to tissue ratio at 1 h [8]: 4.83 ± 1.46
tissue to tissue ratio at 96 h [8]: 13.4 ± 6.42
tissue to tissue ratio at 1 h (3.7 MBq, 1 h p.i., read-out: Tumor-to-Kidney ratio (T/B)): 2.22 ± 1.01
tissue to tissue ratio at 48 h (3.7 MBq, 48 h p.i., read-out: Tumor-to-Kidney ratio (T/B)): 4.16 ± 3.43
tissue to tissue ratio at 1 h (Tumor-to-Bladder ratio (T/B)): 24.8 ± 11
tissue to tissue ratio at 4 h (Tumor-to-Bladder ratio (T/B)): 40.4 ± 12.1
tissue to tissue ratio at 4 h (Tumor-to-Heart ratio (T/B)): 29.6 ± 12.8
tissue to tissue ratio at 24 h (Tumor-to-Heart ratio (T/B)): 134 ± 59.9
tissue to tissue ratio at 48 h (Tumor-to-Heart ratio (T/B)): 406 ± 29.2
tissue to tissue ratio at 72 h (Tumor-to-Heart ratio (T/B)): 80.5 ± 26.4
tissue to tissue ratio at 1 h [9]: 17.1 ± 5.58
tissue to tissue ratio at 4 h [9]: 24.4 ± 5.51
tissue to tissue ratio at 24 h [9]: 90.7 ± 23.4
tissue to tissue ratio at 48 h [9]: 73.2 ± 14.5
tissue to tissue ratio at 72 h [9]: 98.9 ± 74.4
tissue to tissue ratio at 96 h [9]: 26.3 ± 11
tissue to tissue ratio at 72 h (Tumor-to-Liver ratio (T/B)): 5.53 ± 1.05
tissue to tissue ratio at 96 h (Tumor-to-Liver ratio (T/B)): 2.7 ± 0.63
tissue to tissue ratio at 1 h (Tumor-to-Lung ratio (T/B)): 7.93 ± 3.29
tissue to tissue ratio at 4 h (Tumor-to-Lung ratio (T/B)): 15.9 ± 6.64
tissue to tissue ratio at 24 h (Tumor-to-Lung ratio (T/B)): 331 ± 35
tissue to tissue ratio at 48 h (Tumor-to-Lung ratio (T/B)): 900 ± 88
tissue to tissue ratio at 72 h (Tumor-to-Lung ratio (T/B)): 299 ± 66.5
tissue to tissue ratio at 96 h (Tumor-to-Lung ratio (T/B)): 61.2 ± 12.8
tissue to tissue ratio at 1 h [10]: 14 ± 5.39
tissue to tissue ratio at 4 h [10]: 28.8 ± 10.3
tissue to tissue ratio at 24 h [10]: 229 ± 10
tissue to tissue ratio at 48 h [10]: 112 ± 61
tissue to tissue ratio at 72 h [10]: 187 ± 27.7
tissue to tissue ratio at 96 h [10]: 39.6 ± 12.2
tissue to tissue ratio at 1 h (Tumor-to-Spleen ratio (T/B)): 8.21 ± 4.18
tissue to tissue ratio at 4 h (Tumor-to-Spleen ratio (T/B)): 6.59 ± 0.75
tissue to tissue ratio at 24 h (Tumor-to-Spleen ratio (T/B)): 55 ± 21.1
tissue to tissue ratio at 48 h (Tumor-to-Spleen ratio (T/B)): 124 ± 50
tissue to tissue ratio at 72 h (Tumor-to-Spleen ratio (T/B)): 51.8 ± 19.5
tissue to tissue ratio at 96 h (Tumor-to-Spleen ratio (T/B)): 9.63 ± 3.59
tissue to tissue ratio at 4 h (Tumor-to-Stomach ratio (T/B)): 5.05 ± 1.72
tissue to tissue ratio at 24 h (Tumor-to-Stomach ratio (T/B)): 5.94 ± 1.92
tissue to tissue ratio at 48 h (Tumor-to-Stomach ratio (T/B)): 4.15 ± 0.31
tissue to tissue ratio at 72 h (Tumor-to-Stomach ratio (T/B)): 8.41 ± 1.18
tissue to tissue ratio at 4 h (4 h p.i., read-out: Tumor-to-Kidney ratio (T/B)): 2.19 ± 0.23
tissue to tissue ratio at 24 h (24 h p.i., read-out: Tumor-to-Kidney ratio (T/B)): 1.84 ± 0.56
tissue to tissue ratio at 72 h (72 h p.i., read-out: Tumor-to-Kidney ratio (T/B)): 1.65 ± 0.05
tissue to tissue ratio at 96 h (96 h p.i., read-out: Tumor-to-Kidney ratio (T/B)): 1.37 ± 0.84
tissue uptake at 1 h (Bladder uptake): 0.84 ± 0.31 %ID/g
tissue uptake at 4 h (Bladder uptake): 0.4 ± 0.13 %ID/g
tissue uptake at 24 h (Bladder uptake): 0.18 ± 0.04 %ID/g
